Molecular target: T1, mTRPA1 (Mus musculus, UniProt Q8BLA8)
T1 construct: expressed in transfected cells
Test: IonWorks Barracuda (IWB) automated patch clamp, TRPA1 inhibitory activity
Format: cell-based
Settings: HEK293 cells stably expressing mTRPA1, current induced by AITC, amplitude at +100 mV; read-out: IC50 (inhibition activity on TRPA1)
Experimental: In this example, the inhibitory activity of the compounds prepared in some examples of the present invention on transient receptor potential channel protein ankyrin 1 (TRPA1) was tested. Among them, compound of formula A (WO2010075353) was used as the positive control compound: […]
Test method using IonWorks Barracuda (IWB) automated patch clamp detection: HEK293 cells stably expressing mTRPA1 were placed in the T175 culture flask with DMEM medium containing 15 µg/mL Blasticidin S HCl, 200 µg/mL Hygromycin B and 10% FBS, and cultured in 37° C., 5% CO2 incubator. When the cell density reached about 80%, the culture medium was removed, washed once with phosphate buffered saline (PBS) without calcium and magnesium. 3 mL of Trypsin was added to digest for 2 min, 7 mL of culture solution was added to terminate the digestion. The cells were collected to 15 mL centrifuge tube and centrifuged at 800 rpm for 3 min. After the supernatant was removed, the cells were added to appropriate volume of extracellular fluid for re-suspending, and the cell density was controlled at 2-3×10^6/mL for use in IWB experiment. Extracellular fluid formulation (in mM): 140 NaCl, 5 KCl, 1 MgCl2, 10 HEPES, 0.5 EGTA, 10 Glucose (pH 7.4); intracellular fluid formulation (in mM): 140 CsCl, 10 HEPES, 5 EGTA, 0.1 CaCl2, 1 MgCl2 (pH 7.2). 28 mg/mL of amphotericin B was freshly prepared with DMSO on the day of experiment, and then final concentration of 0.1 mg/mL was prepared with intracellular fluid.
Population patch clamp (PPC) plate was used in IWB experiment. The entire detection process was automatically carried out by the instrument, that is, extracellular fluid was added into 384 wells of PPC plate, and after intracellular fluid was added under PPC plate (in plenum), 6 µL of cell fluid was added for sealing test, and finally the intracellular fluid in plenum was replaced with intracellular fluid containing amphotericin B to establish a whole-cell recording mode after perforating sealed cells. The sampling frequency for recording TPRA1 current was 10 kHz, the cells were clamped at 0 mV, the voltage stimulation command (channel protocol) was a ramp voltage from −100 mV to +100 mV for 300 ms. This voltage stimulation was applied every 10 s, mTRPA1 current was induced by 300 µM AITC.
Data recording and current amplitude measurement export were carried out by IWB software (version 2.5.3, Molecular Devices Corporation, Union City, CA). No statistics was recorded for holes with sealing impedance lower than 20 MΩ. The original current data was corrected by software for leak subtraction. TRPA1 current amplitude was measured at +100 mV. […] If IC50 value of HC030031 exceeded 3 times of the average IC50 value previously obtained on each plate, it would be re-tested. The dose-effect curve of compounds and IC50 were fitted and calculated by GraphPad Prism 5.02 (GraphPad Software, San Diego, CA).
Some compounds of the present invention were subjected to IC50 inhibition activity test using the IonWorks Barracuda (IWB) automated patch clamp detection method.

T1 sequence (Q8BLA8 whole entry): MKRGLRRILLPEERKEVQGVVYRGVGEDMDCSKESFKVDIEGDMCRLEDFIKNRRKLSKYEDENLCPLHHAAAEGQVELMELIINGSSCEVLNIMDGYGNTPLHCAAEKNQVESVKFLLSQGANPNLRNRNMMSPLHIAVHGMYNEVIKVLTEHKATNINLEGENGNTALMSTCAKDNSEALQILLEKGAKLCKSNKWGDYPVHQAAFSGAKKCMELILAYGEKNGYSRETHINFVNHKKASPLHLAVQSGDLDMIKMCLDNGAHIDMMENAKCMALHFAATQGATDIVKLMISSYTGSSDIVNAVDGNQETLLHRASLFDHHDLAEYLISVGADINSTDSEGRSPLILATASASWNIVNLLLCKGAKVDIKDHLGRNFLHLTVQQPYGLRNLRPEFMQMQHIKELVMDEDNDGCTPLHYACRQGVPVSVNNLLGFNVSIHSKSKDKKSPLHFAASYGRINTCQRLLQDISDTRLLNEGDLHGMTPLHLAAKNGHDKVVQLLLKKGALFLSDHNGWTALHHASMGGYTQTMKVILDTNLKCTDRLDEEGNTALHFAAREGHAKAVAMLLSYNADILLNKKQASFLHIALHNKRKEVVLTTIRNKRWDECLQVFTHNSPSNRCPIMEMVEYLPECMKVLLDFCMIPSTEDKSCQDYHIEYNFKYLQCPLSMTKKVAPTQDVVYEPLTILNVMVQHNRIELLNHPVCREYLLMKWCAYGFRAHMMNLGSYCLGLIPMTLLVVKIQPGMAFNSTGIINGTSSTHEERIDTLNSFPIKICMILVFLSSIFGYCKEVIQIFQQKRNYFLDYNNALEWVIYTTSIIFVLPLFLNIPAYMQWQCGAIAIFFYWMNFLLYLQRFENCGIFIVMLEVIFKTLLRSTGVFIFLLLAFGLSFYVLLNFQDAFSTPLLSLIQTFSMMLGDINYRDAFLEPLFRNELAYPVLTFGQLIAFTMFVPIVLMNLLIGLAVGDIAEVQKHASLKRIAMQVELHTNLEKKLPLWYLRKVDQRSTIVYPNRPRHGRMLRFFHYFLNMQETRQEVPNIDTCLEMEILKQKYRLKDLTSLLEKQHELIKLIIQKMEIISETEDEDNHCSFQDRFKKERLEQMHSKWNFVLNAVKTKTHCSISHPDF

**Q.** How did the IC50 turn out when `CNCc1ccc(-c2cnn(C)c2)c(NS(=O)(=O)c2ccccc2)c1` [IA-56, N-(2-(1-methyl-1H-pyrazole-4-yl)-5-((methylamino)methyl)phenyl)benzenesulfonamide] was run?
**A.** Its IC50 is 10 to 20 µM.

**Q.** How did the IC50 turn out when `CNCc1ccc(-c2c(C)nn(C)c2C)c(NS(=O)(=O)c2ccccc2)c1` [IA-57, N-(5-((methylamino)methyl)-2-(1,3,5-trimethyl-1H-pyrazole-4-yl)phenyl) benzenesulfonamide] was run?
**A.** The IC50 was 20 to 50 µM.

**Q.** How did the IC50 turn out when `CNCc1ccc(-c2c(C)n[nH]c2C)c(NS(=O)(=O)c2ccccc2)c1` [IA-58, N-(2-(3,5-dimethyl-1H-pyrazole-4-yl)-5-((methylamino)methyl)phenyl)benzenesulfonamide] was run?
**A.** Its IC50 is 50 to 100 µM.

**Q.** With `CNCc1ccc(-c2ncc(C)s2)c(NS(=O)(=O)c2ccccc2)c1` [IA-59, N-(5-((methylamino)methyl)-2-(5-methylthiazol-2-yl)phenyl)benzenesulfonamide] as the compound, how does the IC50 read?
**A.** Its IC50 is 5 to 10 µM.

**Q.** `CNCc1ccc(-c2cnc[nH]2)c(NS(=O)(=O)c2ccccc2)c1` [IA-61, N-(2-(1H-imidazol-5-yl)-5-((methylamino)methyl)phenyl)benzenesulfonamide] was tested. Which IC50 did it give?
**A.** Its IC50 is 10 to 20 µM.

**Q.** `O=S(=O)(Nc1cc(CNCC(F)(F)F)ccc1-c1ccco1)c1ccccc1` [IA-62] was tested. Which IC50 did it give?
**A.** The IC50 was 50 to 100 µM.

**Q.** `O=S(=O)(Nc1cc(/C=N\O)ccc1-c1ccco1)c1ccccc1` [IC-1, N-(2-(furan-2-yl)-5-((oximido)methyl)phenyl)benzenesulfonamide] was tested. Which IC50 did it give?
**A.** The IC50 was 20 to 50 µM.

**Q.** How did the IC50 turn out when `NCc1ccc(-c2ccco2)c(NS(=O)(=O)c2ccc(F)cc2)c1` [ID-2, N-(5-(aminomethyl)-2-(furan-2-yl)phenyl)-4-fluorobenzenesulfonamide] was run?
**A.** Its IC50 is 1 to 5 µM.

**Q.** `NCc1ccc(NS(=O)(=O)c2ccccc2)c(-c2ccco2)c1` [ID-4, N-(4-(aminomethyl)-2-(furan-2-yl)phenyl)benzenesulfonamide] was tested. Which IC50 did it give?
**A.** The IC50 was 1 to 5 µM.

**Q.** For `NCc1ccc(NS(=O)(=O)c2ccc(F)cc2)c(-c2ccco2)c1` [ID-6, N-(4-(aminomethyl)-2-(furan-2-yl)phenyl)-4-fluorobenzenesulfonamide], which IC50 is on record?
**A.** Its IC50 is 1 to 5 µM.

**Q.** With `NCc1ccc(-c2cc[nH]n2)c(NS(=O)(=O)c2ccsc2)c1` [ID-8, N-(5-(aminomethyl)-2-(1H-pyrazole-3-yl)phenyl)thiophene-3-sulfonamide] as the compound, how does the IC50 read?
**A.** Its IC50 is 1 to 5 µM.

**Q.** For `CC(=O)NCc1ccc(NS(=O)(=O)c2ccsc2)c(-c2ccco2)c1` [IE, N-(3-(furan-2-yl)-4-(thiophene-3-sulfonamide)benzyl)acetamide], which IC50 is on record?
**A.** Its IC50 is 20 to 50 µM.

**Q.** Which IC50 does the source give for `O=S(=O)(Nc1cc(CO)ccc1-c1ccco1)c1ccccc1` [IH, N-(2-(furan-2-yl)-5-(hydroxymethyl)phenyl)benzenesulfonamide] here?
**A.** Its IC50 is 20 to 50 µM.

**Q.** `CN(C)Cc1ccc(NS(=O)(=O)c2ccsc2)c(-c2ccco2)c1` [IJ-1, N-(4-((dimethylamino)methyl)-2-(furan-2-yl)phenyl)thiophene-3-sulfonamide] was tested. Which IC50 did it give?
**A.** The IC50 was 1 to 5 µM.

**Q.** With `CNCc1ccc(-n2nccn2)c(NS(=O)(=O)c2ccccc2)c1` [IQ-3, N-(5-((methylamino)methyl)-2-(2H-1,2,3-triazol-2-yl)phenyl)benzenesulfonamide] as the compound, how does the IC50 read?
**A.** Its IC50 is 1 to 5 µM.

**Q.** With `CNCc1ccc(-n2ccnn2)c(NS(=O)(=O)c2ccccc2)c1` [IQ-4, N-(5-((methylamino)methyl)-2-(1H-1,2,3-triazol-1-yl)phenyl)benzenesulfonamide] as the compound, how does the IC50 read?
**A.** The IC50 was 5 to 10 µM.

**Q.** How did the IC50 turn out when `CNCCc1ccc(NS(=O)(=O)c2ccsc2)c(-c2ccco2)c1` [IS, N-(2-(furan-2-yl)-4-(2-(methylamino)ethyl)phenyl)thiophene-3-sulfonamide] was run?
**A.** The IC50 was 1 to 5 µM.

**Q.** For `CC(N)c1ccc(N(C)S(=O)(=O)c2ccccc2)c(-c2ccco2)c1` (centres unmarked) [IU-1], which IC50 is on record?
**A.** Its IC50 is 1 to 5 µM.

**Q.** How did the IC50 turn out when `CC(N)c1ccc(NS(=O)(=O)c2ccccc2)c(-c2ccco2)c1` (centres unmarked) [IU-2, N-(4-(1-aminoethyl)-2-(furan-2-yl)phenyl)benzenesulfonamide] was run?
**A.** Its IC50 is 1 to 5 µM.

**Q.** With `CCC(N)c1ccc(NS(=O)(=O)c2ccccc2)c(-c2ccco2)c1` (centres unmarked) [IU-3, N-(4-(1-aminopropyl)-2-(furan-2-yl)phenyl)benzenesulfonamide] as the compound, how does the IC50 read?
**A.** The IC50 was under 1 µM.

**Q.** With `CCCC(N)c1ccc(NS(=O)(=O)c2ccccc2)c(-c2ccco2)c1` (centres unmarked) [IU-4, N-(4-(1-aminobutyl)-2-(furan-2-yl)phenyl)benzenesulfonamide] as the compound, how does the IC50 read?
**A.** Its IC50 is under 1 µM.

**Q.** Which IC50 does the source give for `CC(C)C(N)c1ccc(NS(=O)(=O)c2ccccc2)c(-c2ccco2)c1` (centres unmarked) [IU-5, N-(4-(1-amino-2-methylpropyl)-2-(furan-2-yl)phenyl)benzenesulfonamide] here?
**A.** The IC50 was under 1 µM.

**Q.** With `NC(c1ccc(NS(=O)(=O)c2ccccc2)c(-c2ccco2)c1)C1CC1` (centres unmarked) [IU-6, N-(4-(amino(cyclopropyl)methyl)-2-(furan-2-yl)phenyl)benzenesulfonamide] as the compound, how does the IC50 read?
**A.** The IC50 was under 1 µM.

**Q.** Which IC50 does the source give for `NC(c1ccccc1)c1ccc(NS(=O)(=O)c2ccccc2)c(-c2ccco2)c1` (centres unmarked) [IU-7, N-(4-(amino(phenyl)methyl)-2-(furan-2-yl)phenyl)benzenesulfonamide] here?
**A.** Its IC50 is 1 to 5 µM.

**Q.** With `NC(Cc1ccccc1)c1ccc(NS(=O)(=O)c2ccccc2)c(-c2ccco2)c1` (centres unmarked) [IU-8, N-(4-(1-amino-2-phenylethyl)-2-(furan-2-yl)phenyl)benzenesulfonamide] as the compound, how does the IC50 read?
**A.** Its IC50 is 10 to 20 µM.

**Q.** Which IC50 does the source give for `CC(N)c1ccc(-c2ccco2)c(NS(=O)(=O)c2ccccc2)c1` (centres unmarked) [IU-9, N-(5-(1-aminoethyl)-2-(furan-2-yl)phenyl)benzenesulfonamide] here?
**A.** Its IC50 is under 1 µM.

**Q.** `CNC(C)c1ccc(NS(=O)(=O)c2ccccc2)c(-c2ccco2)c1` (centres unmarked) [IV-1, N-(2-(furan-2-yl)-4-(1-(methylamino)ethyl)phenyl)benzenesulfonamide] was tested. Which IC50 did it give?
**A.** The IC50 was 1 to 5 µM.

**Q.** For `CNC(C)c1ccc(-c2ccco2)c(NS(=O)(=O)c2ccccc2)c1` (centres unmarked) [IV-2, N-(2-(furan-2-yl)-5-(1-(methylamino)ethyl)phenyl)benzenesulfonamide], which IC50 is on record?
**A.** The IC50 was 1 to 5 µM.

**Q.** With `O=S(=O)(Nc1cc(C2CCCN2)ccc1-c1ccco1)c1ccccc1` (centres unmarked) [IW, N-(2-(furan-2-yl)-5-(pyrrolidin-2-yl)phenyl)benzenesulfonamide] as the compound, how does the IC50 read?
**A.** The IC50 was 1 to 5 µM.

Source: US20240262812A1, “N-SUBSTITUTED PHENYLSULFONAMIDE COMPOUND AND USE THEREOF” (Shanghai Leado Pharmatech Co., Ltd., priority 2021, published 2024)
